Measurements reported in US20060252766A1, “Methods using a combination of 3-heteroaryl-2-indolinone and a cyclooxygenase-2 inhibitor for the treatment of neoplasia” (PFIZER INC, priority 2002, published 2006).

Legend:
FLK-1 receptor = target: T1, FLK-1 receptor (Mus musculus, UniProt P35918); assay: FLK-1 ELISA in FLK-1/NIH3T3 cells; format: cell-based
T1 construct: expressed in transfected cells; host or cells: NIH3T3 C7#3 cells

3T3/E/H+TGF-a(T) cells = assay: 3T3/E/H+TGF-a(T) cell growth SRB assay; format: cell-based; conditions: SRB readout
HUV-EC-C cells (VEGF) = assay: HUV-EC-C assay, [3H] thymidine incorporation, VEGF; format: cell-based, human; conditions: Mitogenesis in endothelial cells
HUV-EC-C cells (a-FGF) = assay: HUV-EC-C assay, [3H] thymidine incorporation, a-FGF; format: cell-based, human; conditions: Mitogenesis in endothelial cells
Protocol: The following protocol may also be used to measure the composition's activity: • Day 0 • 1. […] After cells have detached from the flask, add an equal volume of assay medium and transfer to a 50 ml sterile centrifuge tube (Fisher Scientific; catalogue no. 05-539-6). • 2. Wash the cells with about 35 ml assay medium in the 50 ml sterile centrifuge tube by adding the assay medium, centrifuge for 10 minutes at approximately 200×g, aspirate the supernatant, and resuspend with 35 ml D-PBS. Repeat the wash two more times with D-PBS, resuspend the cells in about 1 ml assay medium/15 cm^2 of tissue culture flask. Assay medium consists of F12K medium (Gibco BRL; catalogue no. 21127-014)+0.5% heat-inactivated fetal bovine serum. Count the cells with a Coulter Counter.RTM.v Coulter Electronics, Inc.) and add assay medium to the cells to obtain a concentration of 0.8-1.0×10^5 cells/ml. • 3. Add cells to 96-well flat-bottom plates at 100 μl/well or 0.8-1.0×10^4 cells/well; incubate about 24 h at 37° C., 5% CO2. Day 1 • 1. Make up two-fold drug titrations in separate 96-well plates, generally 50 μM on down to 0 μM. Use the same assay medium as mentioned in day 0, step 2 above. Titrations are made by adding […] of drug at 200 μM (4× the final well concentration) to the top well of a particular plate column. Since the stock drug concentration is usually 20 mM in DMSO, the 200 μM drug concentration contains 2% DMSO. Therefore, diluent made up to 2% DMSO in assay medium (F12K+0.5% fetal bovine serum) is used as diluent for the drug titrations in order to dilute the drug but keep the DMSO concentration constant. Add this diluent to the remaining wells in the column at 60 μl/well. Take 60 μl from the 120 μl of 200 μM drug dilution in the top well of the column and mix with the 60 μl in the second well of the column. Take 60 μl from this well and mix with the 60 μl in the third well of the column, and so on until two-fold titrations are completed. When the next-to-the-last well is mixed, take 60 μl of the 120 μl in this well and discard it. Leave the last well with 60 μl of DMSO/media diluent as a non-drug-containing control. Make 9 columns of titrated drug, enough for triplicate wells each for 1) VEGF (obtained from Pepro Tech Inc., catalogue no. 100-200, 2) endothelial cell growth factor (ECGF) (also known as acidic fibroblast growth factor, or aFGF) (obtained from Boehringer Mannheim Biochemica, catalogue no. 1439 600), and assay media control. ECGF comes as a preparation with sodium heparin. • 2. Transfer 50 μl/well of the drug dilutions to the 96-well assay plates containing the 0.8-1.0×10^4 cells/100 μl/well of the HUV-EC-C cells from day 0 and […] incubate ~2 h at 37° C., 5% CO2. • 3. In triplicate, add 50 μl/well of 80 ng/ml VEGF, 20 ng/ml ECGF, or media control to each drug condition. As with the drugs, the growth factor concentrations are 4× the desired final concentration. Use the assay media from day 0 step 2 to make the concentrations of growth factors. Incubate approximately 24 hours at 37° C., 5% CO2. Each well will have 50 μl drug dilution, 50 μl growth factor or media, and 100 ul cells,=200 ul/well total. Thus the 4× concentrations of drugs and growth factors become 1× once everything has been added to the wells. Day 2 • 1. Add ^3H-thymidine (Amersham; catalogue no. TRK-686) at 1 μCi/well (10 μl/well of 100 μCi/ml solution made up in RPMI media+10% heat-inactivated fetal bovine serum) and incubate about 24 h at 37° C., 5% CO2. • Note: ^3H-thymidine is made up in RPMI media because all of the other applications for which we use the ^3H-thymidine involve experiments done in RPMI. The media difference at this step is probably not significant. RPMI was obtained from Gibco BRL, catalogue no. 11875-051. Day 3 • 1. Freeze plates overnight at −20° C. Day 4 • 1. […]

3T3/PDGFR+PDGF(T) cells = assay: 3T3/PDGF-βR/PDGF-BB(T) cell growth SRB assay; format: cell-based; conditions: tumor-derived, SRB readout
Protocol: Cell Line and Growth Medium:
• 3T3/PDGF-βR/PDGF-BB(T) (NIH 3T3 clone 7 cells expressing PDGFβ-receptor and PDGF-BB, from tumors resected from athymic mice) 2% calf serum/DMEM+2 mM glutamine Protocol: Day 0: Cell Plating: • This part of assay is carried out in a laminar flow hood. • 1. Trypsinize cells as usual. Transfer 200 μl of cell suspension to 10 ml of isotone. Count cells on the Coulter Counter. • 2. Dilute cells in growth medium to 60,000 cells/ml. Transfer 100 μl of cells to each well in a 96-well flat bottom plate to give 6000 cells/well. • 3. Allow half of plate (4 rows) for each compound and quadruplicate wells for each compound concentration, a set of 4 wells for medium control and 4 wells for DMSO control. • 4. Gently shake plates to allow for uniform attachment of the cells to the plate. • 5. Incubate the plates at 37° C. in a 10% CO2 incubator. • Day 1: Addition of Compound: same as for Assay 1. • Day 5: Development of Assay: same as for Assay 1.
3T3/E/H+TGF-α(T): NIH 3T3 cells expressing EGFR/HER2 chimera and TGF-α, tumor-derived 3T3/EGFR+TGF-α(T): NIH 3T3 cells expressing EGFR and TGF-α, tumor-derived 3T3/PDGFR+PDGF(T): NIH 3T3 cells expressing PDGF-βR and PDGF-ββ, tumor-derived SMC: human smooth muscle cells from Clonetics

PDGFR [1] = target: PDGFR (Homo sapiens, UniProt P09619); assay: PDGF-R ELISA
Chain of PDGFR (Homo sapiens, UniProt P09619) (P09619 33-1106): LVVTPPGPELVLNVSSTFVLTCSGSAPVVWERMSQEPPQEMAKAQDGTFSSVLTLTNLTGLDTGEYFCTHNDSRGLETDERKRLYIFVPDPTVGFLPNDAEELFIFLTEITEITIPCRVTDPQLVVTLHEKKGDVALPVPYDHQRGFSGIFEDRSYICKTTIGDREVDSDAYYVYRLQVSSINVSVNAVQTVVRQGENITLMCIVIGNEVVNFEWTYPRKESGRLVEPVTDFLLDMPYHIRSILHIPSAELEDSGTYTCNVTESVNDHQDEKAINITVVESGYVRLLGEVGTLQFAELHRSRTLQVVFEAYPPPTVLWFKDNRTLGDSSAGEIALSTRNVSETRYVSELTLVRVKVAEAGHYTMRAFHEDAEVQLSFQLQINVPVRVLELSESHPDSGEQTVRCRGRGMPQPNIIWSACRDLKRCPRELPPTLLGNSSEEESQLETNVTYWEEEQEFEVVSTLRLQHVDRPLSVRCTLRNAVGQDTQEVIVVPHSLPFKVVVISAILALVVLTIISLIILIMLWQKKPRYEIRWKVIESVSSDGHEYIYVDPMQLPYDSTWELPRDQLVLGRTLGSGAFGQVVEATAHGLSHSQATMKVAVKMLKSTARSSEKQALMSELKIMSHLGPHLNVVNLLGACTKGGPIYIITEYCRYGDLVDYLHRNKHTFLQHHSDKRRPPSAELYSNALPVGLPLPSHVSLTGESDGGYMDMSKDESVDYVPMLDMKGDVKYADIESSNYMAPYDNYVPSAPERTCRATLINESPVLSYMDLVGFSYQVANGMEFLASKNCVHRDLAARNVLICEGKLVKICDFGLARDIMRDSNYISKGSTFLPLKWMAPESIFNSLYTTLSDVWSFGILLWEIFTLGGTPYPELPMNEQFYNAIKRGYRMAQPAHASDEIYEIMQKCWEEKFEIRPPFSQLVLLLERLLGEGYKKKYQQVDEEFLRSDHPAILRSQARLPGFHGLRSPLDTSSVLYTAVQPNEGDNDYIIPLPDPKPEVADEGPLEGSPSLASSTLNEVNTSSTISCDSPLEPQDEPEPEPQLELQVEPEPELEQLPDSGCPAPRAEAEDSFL

PDGFR [2] = assay: PDGF-induced BrdU incorporation assay in 3T3/EGFR cells; format: cell-based; conditions: Mitogenesis in 3T3/EGFR cells, read-out: PDGFR PDGF Ligand IC50
FGFR = FGFR (Mus musculus, UniProt P16092); assay: FGF ligand BrdU incorporation in 3T3/EGFR cells; format: cell-based; conditions: Mitogenesis in 3T3/EGFR cells
Chain of FGFR (P16092 22-822, change not shown): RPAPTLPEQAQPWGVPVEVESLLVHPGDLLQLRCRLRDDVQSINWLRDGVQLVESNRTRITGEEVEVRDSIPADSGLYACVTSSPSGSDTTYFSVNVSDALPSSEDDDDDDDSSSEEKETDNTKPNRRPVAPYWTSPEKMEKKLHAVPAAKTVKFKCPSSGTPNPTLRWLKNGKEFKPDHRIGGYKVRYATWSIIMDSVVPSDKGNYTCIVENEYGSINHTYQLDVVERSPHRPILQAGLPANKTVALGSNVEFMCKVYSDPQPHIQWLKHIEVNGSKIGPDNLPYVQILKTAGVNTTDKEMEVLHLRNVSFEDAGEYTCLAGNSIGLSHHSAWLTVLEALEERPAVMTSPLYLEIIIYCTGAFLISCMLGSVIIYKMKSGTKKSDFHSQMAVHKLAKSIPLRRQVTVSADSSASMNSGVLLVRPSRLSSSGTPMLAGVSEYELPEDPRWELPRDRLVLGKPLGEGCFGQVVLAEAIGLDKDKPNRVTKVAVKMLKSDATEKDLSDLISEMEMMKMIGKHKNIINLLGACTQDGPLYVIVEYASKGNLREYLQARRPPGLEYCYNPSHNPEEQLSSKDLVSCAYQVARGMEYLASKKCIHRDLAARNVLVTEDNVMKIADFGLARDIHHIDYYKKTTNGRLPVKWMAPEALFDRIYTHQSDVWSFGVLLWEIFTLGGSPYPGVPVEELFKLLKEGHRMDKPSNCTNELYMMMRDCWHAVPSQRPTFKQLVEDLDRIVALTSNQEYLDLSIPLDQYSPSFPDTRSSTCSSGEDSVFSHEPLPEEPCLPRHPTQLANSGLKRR

T1 sequence (P35918 20-1345): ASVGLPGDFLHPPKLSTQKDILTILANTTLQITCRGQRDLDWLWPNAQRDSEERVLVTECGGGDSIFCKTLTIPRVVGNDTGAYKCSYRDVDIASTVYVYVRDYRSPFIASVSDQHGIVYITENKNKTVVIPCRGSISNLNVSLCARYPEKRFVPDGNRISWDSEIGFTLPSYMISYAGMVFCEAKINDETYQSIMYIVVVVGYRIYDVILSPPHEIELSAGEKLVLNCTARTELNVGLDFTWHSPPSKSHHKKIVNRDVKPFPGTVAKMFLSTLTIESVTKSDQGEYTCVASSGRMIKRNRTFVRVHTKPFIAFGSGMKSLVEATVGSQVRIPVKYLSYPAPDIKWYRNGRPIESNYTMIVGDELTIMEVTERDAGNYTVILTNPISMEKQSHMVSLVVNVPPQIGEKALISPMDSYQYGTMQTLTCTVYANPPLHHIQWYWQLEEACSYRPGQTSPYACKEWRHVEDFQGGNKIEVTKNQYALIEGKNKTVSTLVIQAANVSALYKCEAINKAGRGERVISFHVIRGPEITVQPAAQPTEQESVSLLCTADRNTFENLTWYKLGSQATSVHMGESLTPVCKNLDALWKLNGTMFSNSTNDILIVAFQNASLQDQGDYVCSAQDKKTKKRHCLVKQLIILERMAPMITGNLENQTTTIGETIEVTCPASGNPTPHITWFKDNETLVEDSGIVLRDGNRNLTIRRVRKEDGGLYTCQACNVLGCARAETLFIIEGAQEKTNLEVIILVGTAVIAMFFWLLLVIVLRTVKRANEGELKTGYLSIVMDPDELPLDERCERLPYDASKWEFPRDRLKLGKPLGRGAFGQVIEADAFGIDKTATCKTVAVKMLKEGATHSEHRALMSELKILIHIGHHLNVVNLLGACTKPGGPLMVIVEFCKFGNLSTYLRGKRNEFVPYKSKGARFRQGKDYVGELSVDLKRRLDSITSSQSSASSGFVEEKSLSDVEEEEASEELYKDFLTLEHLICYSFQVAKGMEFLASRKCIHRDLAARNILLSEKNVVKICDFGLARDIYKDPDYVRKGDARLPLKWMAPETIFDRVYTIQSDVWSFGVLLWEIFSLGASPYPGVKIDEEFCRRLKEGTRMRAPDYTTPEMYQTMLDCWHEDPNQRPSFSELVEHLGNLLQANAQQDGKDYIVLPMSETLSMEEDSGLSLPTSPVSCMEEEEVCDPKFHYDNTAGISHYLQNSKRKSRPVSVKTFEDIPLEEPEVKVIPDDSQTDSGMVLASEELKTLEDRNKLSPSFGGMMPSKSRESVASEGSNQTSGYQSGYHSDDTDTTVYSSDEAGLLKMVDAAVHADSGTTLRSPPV

IC50 (HUV-EC-C cells (VEGF))	IC50 (HUV-EC-C cells (a-FGF))	Compound	IC50 (PDGFR [1])	other results
–	–	3-[(2-Sulphonylfuran-5-yl)methylene]-2-indolinone sodium salt [SU5428]	–	IC50 (FLK-1 receptor): 8.6 µM
–	–	CN(C)c1ccc(C=C2C(=O)Nc3ccccc32)cc1 [SU4312, 3-(4-Dimethylaminobenzylidenyl)-2-indolinone]	–	IC50 (3T3/E/H+TGF-a(T) cells): 36 µM
6.6 µM	3.4 µM	COc1ccc(OC)c(C=C2C(=O)Nc3ccccc32)c1 [SU4793, 3-(2,5-Dimethoxybenzylidenyl)-2-indolinone]	–	–
4.8 µM	35.7 µM	COc1cccc(C=C2C(=O)Nc3ccccc32)c1OC [SU4794, 3-(2,3-dimethoxybenzylidenyl)-2-indolinone]	–	–
19.9 µM	–	CC(=O)Nc1ccc(C=C2C(=O)Nc3ccccc32)cc1 [SU4799, 3-(4-acetamidobenzylidenyl)-2-indolinone]	–	–
2.5 µM	45.2 µM	O=C1Nc2ccccc2C1=Cc1ccc(O)cc1Cl [SU4932, 3-(2-chloro-4-hydroxybenzylidenyl)-2-indolinone]	–	–
25.6 µM	19.3 µM	CN(C)c1ccc(C=C2C(=O)N(C)c3ccccc32)cc1 [SU4952, 3-(4-Dimethylaminobenzylidenyl)-1-methyl-2-indolinone]	–	–
8 µM	13 µM	CN1C(=O)C(=Cc2ccc(Br)cc2)c2ccccc21 [SU4956, 3-(4-Bromobenzylidenyl)-1-methyl-2-indolinone]	–	–
46.1 µM	27.3 µM	CN1C(=O)C(=Cc2ccc(N3CCOCC3)cc2)c2ccccc21 [SU4982, 1-Methyl-3-[4-(morpholin-4-yl)benzylidenyl]-2-indolinone]	–	–
–	–	O=CN1CCN(c2ccc(C=C3C(=O)Nc4ccccc43)cc2)CC1 [SU4984, 3-[4-(4-Formylpiperazin-1-yl)benzylidenyl]-2-indolinone]	5.8 µM	IC50 (3T3/PDGFR+PDGF(T) cells): 22.2 µM
–	–	Cc1cc[nH]c1C=C1C(=O)Nc2ccccc21 [SU5404, 3-[(3-Methylpyrrol-2-yl)methylene]-2-indolinone]	17 µM	IC50 (PDGFR [2]): 3 µM; IC50 (FGFR): 25 µM
–	–	O=C1Nc2ccccc2C1=Cc1ccc(N2CCCC2)cc1 [SU5466, 3-[4-(Pyrrolidin-1-yl)benzylidenyl]-2-indolinone]	86 µM	IC50 (PDGFR [2]): 18 µM; IC50 (FGFR): 15 µM
–	–	O=C1Nc2ccccc2C1=Cc1c[nH]cn1 [SU5473, 3-[(Imidazol-4-yl)methylene]-2-indolinone]	14.2 µM	IC50 (HUV-EC-C cells (VEGF); Homo sapiens, HUVEC): 1.2 µM; IC50 (HUV-EC-C cells (a-FGF); Homo sapiens, HUVEC): 14.1 µM; IC50 (PDGFR [2]): 4 µM; IC50 (FGFR): 50 µM
